Legend:
[1] = system: lung cancer cells A549, H522, H596, Calu-3, HCC2935, H1650, H460, and H226; experiment: Alamar Blue proliferation assay, average over eight lung cancer cell lines; type: cell-based, human
Description: (§1) The inventors assessed the therapeutic effect of hsa-miR-34a for lung cancer by using eight individual lung cancer cell lines. To measure cellular proliferation of lung cancer cells, the following non-small cell lung cancer (NSCLC) cells were used: cells derived from lung adenocarcinoma (A549, H522, Calu-3, HCC2935), cells derived from lung squamous cell carcinoma (H226), cell derived from lung adenosquamous cell carcinoma (H596), cells derived from lung bronchioalveolar carcinoma (H1650), and cells derived from lung large cell carcinoma (H460). Synthetic hsa-miR-34a (Pre-miR™-hsa-miR-34a, Ambion cat. no. AM17100) or negative control (NC) miRNA (Pre-miR™ microRNA Precursor Molecule-Negative Control #2; Ambion cat. no. AM17111) was delivered via lipid-based transfection into A549, H522, H596, Calu-3, HCC2935, H1650, H460 cells and via electroporation into H226 cells.
Lipid-based reverse transfections were carried out in triplicate according to a published protocol (Ovcharenko et al., 2005) and the following parameters: cells (5,000-12,000 per 96 well), 0.1-0.2 μl Lipofectamine™ 2000 (cat. no. 11668-019, Invitrogen Corp., Carlsbad, Calif., USA) in 20 μl OptiMEM (Invitrogen), 30 nM final concentration of miRNA in 100 μl. […]

normal human T cells = conditions: cited from earlier work
HCC2935 cells = experiment: Alamar Blue proliferation assay, lung cancer cells; type: cell-based, human; conditions: hsa-miR-34a 30 nM, lipid transfection, 72 hours, normalized to NC (100%)
Description: as §1
(§2) Lipid-based reverse transfections were carried out in triplicate according to a published protocol (Ovcharenko et al., 2005) and the following parameters: cells (5,000-12,000 per 96 well), 0.1-0.2 μl Lipofectamine™ 2000 (cat. no. 11668-019, Invitrogen Corp., Carlsbad, Calif., USA) in 20 μl OptiMEM (Invitrogen), 30 nM final concentration of miRNA in 100 μl. Electroporation of H226 cells was carried out using the BioRad Gene Pulser Xcell™ instrument (BioRad Laboratories Inc., Hercules, Calif., USA) with the following settings: 5×10^6 cells with 5 μg miRNA in 200 μl OptiMEM (1.6 μM miRNA), square wave pulse at 250 V for 5 ms. Electroporated H226 cells were seeded at 7,000 cells per 96-well in a total volume of 100 μl. All cells except for Calu-3 cells were harvested 72 hours post transfection or electroporation for assessment of cellular proliferation. Calu-3 cells were harvested 10 days post transfection. Proliferation assays were performed using Alamar Blue (Invitrogen) following the manufacturer's instructions. As a control for inhibition of cellular proliferation, siRNA against the motor protein kinesin 11, also known as Eg5, was used. Eg5 is essential for cellular survival of most eukaryotic cells and a lack thereof leads to reduced cell proliferation and cell death (Weil et al., 2002). siEg5 was used in lipid-based transfection following the same experimental parameters that apply to miRNA. The inventors also used a DNA topoisomerase II inhibitor, etoposide, at a final concentration of 10 μM and 50 μM as an internal standard for the potency of miRNAs. Etoposide is an FDA-approved DNA topoisomerase II inhibitor in the treatment of lung cancer. […] Percent (%) proliferation values from the Alamar Blue assay were normalized to values from cells treated with negative control miRNA. Percent proliferation of hsa-miR-34a treated cells relative to cells treated with negative control miRNA (100%) is shown in Table 7 and in FIG. 1.

Calu-3 cells = experiment: Alamar Blue proliferation assay, lung cancer cells; type: cell-based, human; conditions: 10 days post transfection
Description: as §1, §2

H522 cells = experiment: Alamar Blue proliferation assay, lung cancer cells; type: cell-based, human; conditions: hsa-miR-34a 30 nM, lipid transfection, 72 hours, normalized to NC (100%)
Description: as §1, §2

H460 cells = experiment: Alamar Blue proliferation assay, lung cancer cells; type: cell-based, human; conditions: hsa-miR-34a 30 nM, lipid transfection, 72 hours, normalized to NC (100%)
Description: as §1, §2

A549 cells = experiment: Alamar Blue proliferation assay, lung cancer cells; type: cell-based, human; conditions: hsa-miR-34a 30 nM, lipid transfection, 72 hours, normalized to NC (100%)
Description: as §1, §2

H596 cells = experiment: Alamar Blue proliferation assay, lung cancer cells; type: cell-based, human; conditions: hsa-miR-34a 30 nM, lipid transfection, 72 hours, normalized to NC (100%)
Description: as §1, §2

H1650 cells = experiment: Alamar Blue proliferation assay, lung cancer cells; type: cell-based, human; conditions: hsa-miR-34a 30 nM, lipid transfection, 72 hours, normalized to NC (100%)
Description: as §1, §2

H226 cells = experiment: Alamar Blue proliferation assay, lung cancer cells (electroporation); type: cell-based, human; conditions: hsa-miR-34a (head: 30 nM), electroporation, 72 hours, normalized to NC (100%)
Description: as §1
Lipid-based reverse transfections were carried out in triplicate according to a published protocol (Ovcharenko et al., 2005) and the following parameters: cells (5,000-12,000 per 96 well), 0.1-0.2 μl Lipofectamine™ 2000 (cat. no. 11668-019, Invitrogen Corp., Carlsbad, Calif., USA) in 20 μl OptiMEM (Invitrogen), 30 nM final concentration of miRNA in 100 μl. Electroporation of H226 cells was carried out using the BioRad Gene Pulser Xcell™ instrument (BioRad Laboratories Inc., Hercules, Calif., USA) with the following settings: 5×10^6 cells with 5 μg miRNA in 200 μl OptiMEM (1.6 μM miRNA), square wave pulse at 250 V for 5 ms. Electroporated H226 cells were seeded at 7,000 cells per 96-well in a total volume of 100 μl. All cells except for Calu-3 cells were harvested 72 hours post transfection or electroporation for assessment of cellular proliferation. Calu-3 cells were harvested 10 days post transfection. Proliferation assays were performed using Alamar Blue (Invitrogen) following the manufacturer's instructions. As a control for inhibition of cellular proliferation, siRNA against the motor protein kinesin 11, also known as Eg5, was used. […]

[2] = system: PPC-1 prostate cancer xenograft; experiment: Tumor growth of human prostate cancer xenograft; type: in vivo, NOD/SCID mice
Protocol: Therefore, hsa-miR-34a is likely to interfere with prostate tumor growth in the animal. To explore this possibility, the therapeutic potential of synthetic hsa-miR-34a miRNA was evaluated in the animal using the PPC-1 human prostate cancer xenograft. 5×10^6 PPC-1 cells per animal were electroporated with 1.6 μM synthetic hsa-miR-34a or negative control miRNA (Pre-miR™-hsa-miR-34a, Ambion cat. no. AM17100; NC, Pre-miR™ microRNA Precursor Molecule-Negative Control #2, Ambion cat. no. AM17111), mixed with BD Matrigel™, (BD Biosciences; San Jose, Calif., USA; cat. no. 356237) in a 1:1 ratio and implanted subcutaneously into the lower back of NOD/SCID mice (Charles River Laboratories, Inc.; Wilmington, Mass., USA). A group of 7 mice was injected with hsa-miR-34a treated PPC-1 cells, and a group of 7 animals was injected with PPC-1 cells treated with negative control miRNA. To maintain steady levels of miRNA, 6.25 μg of each hsa-miR-34a or negative control miRNA conjugated with the lipid-based siPORT™ amine delivery agent (Ambion, Austin, Tex.; cat. no. AM4502) were repeatedly administered on days 7, 13, 20, and 25 via intra-tumoral injections. Given an average mouse weight of 20 g, this dose equals 0.3125 mg/kg. Tumor growth was monitored by taking caliper measurements every 1-2 days for 32 days. Tumor volumes were calculated using the formula, Volume=length×width×width/2, in which the length is greater than the width, and plotted over time (FIG. 7). Standard deviations are shown in the graph. All data points had p values<0.01. p values were as low as 1.86×10^−9 for data obtained on day 22, indicating statistical significance.

[3] = system: leukemic T cells (Jurkat); conditions: cited from earlier work

Q: Which “average inhibition of cellular proliferation” value ([1]; average over eight lung cancer cell lines, relative to negative control miRNA) does the source give for “hsa-miR-34a: synthetic miRNA; mature sequence UGGCAGUGUCUUAGCUGGUUGUU (MIMAT0000255; SEQ ID NO:1) (synthetic miRNA, chemistry not given here)” here?
A: 25.30%

Q: And the “growth-inhibitory activity compared with etoposide” value ([1]; lung cancer cell lines)?
A: comparable to that of etoposide at concentrations ≧10 μM

Q: And the proliferation (normal human T cells)?
A: no anti-proliferative effect

Q: And the “% proliferation” value (HCC2935 cells)?
A: 80.19%

Q: What about the “% proliferation” value (Calu-3 cells; Calu-3, hsa-miR-34a 30 nM, lipid transfection, normalized to NC (100%)) of the same substance?
A: 28.51%

Q: And the reduction of proliferation (Calu-3 cells; Calu-3 cells, 30 nM, relative to negative control miRNA)?
A: 71.49%

Q: And the “% proliferation” value (H522 cells)?
A: 94.41%

Q: And the “% proliferation” value (H460 cells)?
A: 77.46%

Q: And the “% proliferation” value (A549 cells)?
A: 75.95%

Q: And the “% proliferation” value (H596 cells)?
A: 73.19%

Q: What about the “% proliferation” value (H1650 cells) of the same substance?
A: 78.37%

Q: What about the “% proliferation” value (H226 cells) of the same substance?
A: 89.50%

Q: And the average tumor volume ([2]; day 32, cells electroporated with 1.6 μM, then 6.25 μg intratumoral on days 7, 13, 20, 25, n=7)?
A: 151 mm^3

Q: What about the “effect of each single administration on tumor volumes” value ([2]; mouse, in vivo) of the same substance?
A: acute regression of tumor volumes

Q: And the “tumor growth of PPC-1 xenograft” value ([2]; repeated dosing)?
A: blocked tumor growth

Q: And the proliferation [3]?
A: inhibits the proliferation
